Assay results taken from paper PMC9814901, “One-pot synthesis of cyclic-aminotropiminium carboxylate derivatives with DNA binding and anticancer properties” (Communications Chemistry, 2022).

What was measured:
HeLa cells [1] = test: MTS cell viability assay in HeLa; type: cell-based; settings: 10 nM to 50 μM, 18 h
Description: We investigated the effect of nine cATC derivatives (6b/6d/6e/6f/6i/6j/6k/6l/6n) on cell viability in cancer cell-line HeLa and transformed normal cell-line HEK293. We treated cells with the varying concentrations of the compounds ranging from 10 nM to 50 μM for 18 h (optimized).
MTS assay (CellTiter 96® AQueous One Solution Cell Proliferation Assay (Promega, USA) was used to determine the cell viability. HeLa and HEK293 cells (20,000 cells in each well) were plated in 96 well plate and treated with 6e, 6j, and 6n varying concentrations of the compounds ranging from 10 nM to 50 μM for 18 h. The assay was carried out according to the manufacturer’s instructions. Finally, the plate was read in Varioskan™ LUX multimode microplate reader (Thermo Fisher Scientific) at 490 nm.
Cell scavenging activity was calculated using the following formula:
OD(490nm) (control) – OD(490nm) (Test)/OD(490nm) (control) × 100%
Cell Viability of the cell was calculated using the following formula: […]

HeLa cells [2] = test: cells; set-up: MTS cell viability assay, absorbance at 490 nm; settings: Homo sapiens, 18 h; read-out: IC50 concentration in (µM), HeLa
Description: MTS assay (CellTiter 96® AQueous One Solution Cell Proliferation Assay (Promega, USA) was used to determine the cell viability. HeLa and HEK293 cells (20,000 cells in each well) were plated in 96 well plate and treated with 6e, 6j, and 6n varying concentrations of the compounds ranging from 10 nM to 50 μM for 18 h. The assay was carried out according to the manufacturer’s instructions. Finally, the plate was read in Varioskan™ LUX multimode microplate reader (Thermo Fisher Scientific) at 490 nm. We investigated the effect of nine cATC derivatives (6b/6d/6e/6f/6i/6j/6k/6l/6n) on cell viability in cancer cell-line HeLa and transformed normal cell-line HEK293. We treated cells with the varying concentrations of the compounds ranging from 10 nM to 50 μM for 18 h (optimized). […] Cell scavenging for 6e and 6j at 50 μM was 84.74% and 89.87%, respectively, and for 6n at 30 μM it was 75.43%. Corresponding cell viability was 15.25%, 10.13% and, 24.56%, respectively. Fluorescence signal became visible inside cells at 12 μM, 12 μM, and 20 μM concentrations for 6e, 6j, and 6n, respectively (SM, Figs. S31, S34, S37). […] Scavenging activity for 6e, 6j, and 6n was 61.1%, 18.23%, and 30.1%, respectively at 30 μM concentration (Fig. 5D–F). Corresponding cell viability was 38.82%, 81.76%, and 69.86%, respectively. The IC50 value of all the compounds was at the micromolar (μM) level which is shown in the Supplemental Material (Table S9 and S10).

ct-DNA duplex = test: Circular dichroism of ct-DNA with cATC derivatives; type: binding; settings: increasing concentration of cATC derivatives
From the text: Further, we examined the effect of cATC derivatives (6a/6e/6j/6n) on the ct-DNA duplex structure by circular dichroism (CD) studies. We recorded the CD spectra of ct-DNA with the increasing concentration of cATC derivatives (SM, Fig. S24). […] Next, we examined the binding site of cATC derivative (ligand) at the DNA duplex structure by using AutoDock-Vina, a well-reported computational docking program. We performed docking of cATC derivatives (6a/6d/6k) crystal structure (ligand) with dodecamer DNA duplex crystal structure (PDB ID-1BNA) as the receptor. Our docking results strongly support the non-covalent interaction of cATC derivatives (6a/6d/6k) at the DNA-minor groove with the binding affinity ~7.0 Kcal/mole, mostly hydrophobic interactions (SM, Figs. S25–7, Table S8). […] Overall, cATC derivatives non-covalently bind with DNA duplex through the non-intercalative mode without affecting the native duplex structure. Next, we examined the DNA binding affinity of cATC derivatives (6e/6j/6n) by gel-electrophoresis. The different concentrations of human genomic DNA were treated with EtBr (control) and cATC derivatives (6e/6j/6n) and ran on 1% agarose gel (SM, Fig. S28A–D). […] Further, the Microscale thermophoresis (MST) technique was used to calculate the binding affinities of cATC derivatives (6e/6j/6n) (20 µM) with varying concentrations of human genomic DNA (40 fM to 75 pM).

Row | SMILES | effect on HeLa cell proliferation (HeLa cells [1]) | IC50 (HeLa cells [2]) [µM] | melting point [°C] | effect on B-type duplex CD spectrum of ct-DNA (ct-DNA duplex)
1 | O=C([O-])C1C(c2ccc([N+](=O)[O-])cc2)N(Cc2ccccc2)[c+]2cccccc2N1CCc1ccccc1 (stereo not drawn) [Compound 6d, N-Benzyl-N-phenylethyl 4-nitrophenyl troponyl dihydrapyrazine carboxylic acid] | no or minimal effect | > 50 | – | –
2 | C#CCN1[c+]2cccccc2N(CCc2ccccc2)C(C(=O)[O-])C1c1ccccc1 (stereo not drawn) [Compound 6i] | no or minimal effect | > 50 | 122 to 125 | –
3 | CCCCCCCCN1[c+]2cccccc2N(CCc2ccccc2)C(C(=O)[O-])C1c1ccc(F)cc1 (stereo not drawn) [Compound 6k, N-octyl-N-phenylethyl 4-fluorophenyl troponyl dihydrapyrazinium carboxylate] | – | – | 123 to 125 | –
4 | O=C([O-])C1C(c2ccc(O)cc2)N(C2CCCCC2)[c+]2cccccc2N1CCc1ccccc1 (stereo not drawn) [Compound 6l] | no or minimal effect | > 50 | – | –
5 | O=C([O-])C1C(c2ccccc2)N(Cc2ccccc2)[c+]2cccccc2N1CCc1ccccc1 (stereo not drawn) [Compound 6a, N-benzyl-N-phenylethyl phenyl troponyl dihydropyrazinium carboxylate] | – | – | 135 to 140 | almost remained unchanged
6 | N#Cc1ccc(C2C(C(=O)[O-])N(CCc3ccccc3)c3ccccc[c+]3N2Cc2ccccc2)cc1 (stereo not drawn) [Compound 6f] | no or minimal effect | > 50 | – | –
7 | O=C([O-])C1C(C=Cc2ccccc2)N(Cc2ccccc2)[c+]2cccccc2N1CCc1ccccc1 (stereo not drawn) [Compound 6n] | – | – | 118 to 120 | –
8 | COc1cc(OC)cc(C2C(C(=O)[O-])N(CCc3ccccc3)c3ccccc[c+]3N2Cc2ccccc2)c1 (stereo not drawn) [Compound 6b] | no or minimal effect | > 50 | – | –
